Measured values taken from US12202790B2, “Sulfonamide derivatives having selective Nox inhibiting activity” (GLUCOX BIOTECH AB, priority 2018, dated 2025).

Tests used:
[1] = molecular target: Nox2 (Homo sapiens (Human), UniProt P04839); assay: Nox2 inhibition in human neutrophils, isoluminol-dependent chemiluminescence; type: cell-based; set-up: key to IC50 Nox2: The sign “—” stands for “inactive”; conditions: PMA stimulated human neutrophils
Experimental: (§1) HEK293 overexpressing Nox4 (CJ Nox4) cells were purchased from Redoxis, Lund, Sweden. HEK 293 cells expressing Nox5, Nox3 (HEK TRex) and CHO cells expressing Nox1, were a kind gift from Vincent Jaque Center Medical Universitaire, Geneva, Switzerland. Nox2 expressed in isolated neutrophils were isolated from whole blood (human), as previously described (Anvari E, et al., Free Radic Res 2015; 49:1308-1318).
Compounds of the invention were tested for selectivity against Nox2 in isolated neutrophils from whole blood (human), as previously described (Anvari E, et al., vide supra). Levels of ROS from PMA stimulated primary human neutrophils were measured using isoluminol-dependent chemiluminescence. […] The dye is excited by ROS and the light emitted when the excited molecules return to the ground state, relative to the amount of released ROS, is measured. This reaction is catalyzed and amplified by peroxidases. […] Compounds of the invention and GKT136901 were diluted at 4× working concentration and titrated from 100 μM to 0.006 μM in 1:4 steps as final concentrations. DPI was diluted in isoluminol buffer at 4× working concentration titrated from 10 μM to 0.0006 μM as final concentrations. PMA was diluted in isoluminol buffer at 4× working concentration for a final concentration of 30 ng/ml. […] Luminescence was detected using FluoStar Optima (BMG, Labtech). The isoluminol buffer was prepared immediately prior to addition to test plate. The buffer contained HRP fraction with or without PMA (30 ng/ml). Stock solutions at 6 μg/ml (PMA in HBSS), 3 μg/ml (PMA in DMSO) and 24 mM (DPI) were used and further diluted at the day of analysis to 4× working concentrations in HBSS with or without DMSO.

[2] = molecular target: xanthine oxidase (Bos taurus (Bovine), UniProt P80457); assay: Amplex Red xanthine oxidase (XO) assay; type: biochemical; set-up: key: The sign “—” stands for “inactive”
Chain of xanthine oxidase (P80457 whole entry): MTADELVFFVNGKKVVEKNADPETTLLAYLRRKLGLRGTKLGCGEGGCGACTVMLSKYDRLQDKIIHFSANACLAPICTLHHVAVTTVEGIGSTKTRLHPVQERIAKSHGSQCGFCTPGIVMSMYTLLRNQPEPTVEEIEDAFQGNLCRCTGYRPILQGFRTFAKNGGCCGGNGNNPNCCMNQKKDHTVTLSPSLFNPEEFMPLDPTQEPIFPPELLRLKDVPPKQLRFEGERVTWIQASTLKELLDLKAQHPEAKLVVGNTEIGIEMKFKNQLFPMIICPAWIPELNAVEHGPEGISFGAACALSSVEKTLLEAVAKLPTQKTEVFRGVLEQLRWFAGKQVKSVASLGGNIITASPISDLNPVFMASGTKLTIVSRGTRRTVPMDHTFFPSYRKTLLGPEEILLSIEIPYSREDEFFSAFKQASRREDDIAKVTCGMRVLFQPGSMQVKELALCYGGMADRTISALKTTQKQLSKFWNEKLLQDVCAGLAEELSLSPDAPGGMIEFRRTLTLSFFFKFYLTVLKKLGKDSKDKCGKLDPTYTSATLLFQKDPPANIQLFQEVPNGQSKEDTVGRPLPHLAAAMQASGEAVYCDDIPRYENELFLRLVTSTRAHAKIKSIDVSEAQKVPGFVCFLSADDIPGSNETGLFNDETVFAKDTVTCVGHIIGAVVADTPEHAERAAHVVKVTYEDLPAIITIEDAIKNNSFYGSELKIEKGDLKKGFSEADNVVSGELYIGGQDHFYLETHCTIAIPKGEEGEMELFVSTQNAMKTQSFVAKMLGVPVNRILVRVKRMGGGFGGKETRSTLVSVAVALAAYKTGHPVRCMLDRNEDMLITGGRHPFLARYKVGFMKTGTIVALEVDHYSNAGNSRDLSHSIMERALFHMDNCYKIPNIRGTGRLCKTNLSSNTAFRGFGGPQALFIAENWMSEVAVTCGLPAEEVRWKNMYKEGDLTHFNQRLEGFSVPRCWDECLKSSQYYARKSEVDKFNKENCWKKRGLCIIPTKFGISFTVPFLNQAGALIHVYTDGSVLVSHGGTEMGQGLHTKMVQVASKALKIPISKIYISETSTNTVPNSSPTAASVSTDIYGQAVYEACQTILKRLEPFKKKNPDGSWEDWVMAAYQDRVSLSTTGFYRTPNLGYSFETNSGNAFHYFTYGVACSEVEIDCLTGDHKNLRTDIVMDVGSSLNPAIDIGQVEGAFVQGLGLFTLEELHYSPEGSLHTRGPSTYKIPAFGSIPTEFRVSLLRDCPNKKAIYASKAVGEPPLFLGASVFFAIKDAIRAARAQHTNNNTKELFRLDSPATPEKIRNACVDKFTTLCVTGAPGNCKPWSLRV
Experimental: (§2) Reactive oxygen produced in whole cells or in membrane preparation of Nox1, Nox3, Nox4, Nox5 and xanthine oxidase and glucose oxidase were determined using Amplex Red as detection probe of formed H2O2. Amplex Red (10-acetyl-3,7-dihydroxyphenoxazine) in combination with HRP and co-factors reacts with H2O2 in a 1:1 stoichiometry to form a highly fluorescent resorufin excitated at 544 nm producing emission at 590 nm.
The assay was designed for Amplex Red analysis of production of hydrogen peroxide. Test compounds were incubated with 5 mU/ml bovine derived xanthine oxidase for 15 min at room temperature followed by the addition of substrate and detection mix (final concentrations of 0.2 U/ml HRP, 5 μM hypoxanthine, and 50 μM Amplex Red). As described by Hirano K et al., Antioxid Redox Signal 2015 10; 23:358-374, production of hydrogen peroxide was followed by fluorescence detection during 30 min at 37° C. in a plate reader that use excitation at 544 nm producing emission at 590 nm.

[3] = molecular target: Nox1 (Homo sapiens (Human), UniProt Q9Y5S8); assay: Amplex Red assay of Nox1 expressing CHO cells; type: cell-based; set-up: key to IC50 Nox1: The sign “—” stands for “inactive”
Chain of Nox1 (Q9Y5S8 whole entry): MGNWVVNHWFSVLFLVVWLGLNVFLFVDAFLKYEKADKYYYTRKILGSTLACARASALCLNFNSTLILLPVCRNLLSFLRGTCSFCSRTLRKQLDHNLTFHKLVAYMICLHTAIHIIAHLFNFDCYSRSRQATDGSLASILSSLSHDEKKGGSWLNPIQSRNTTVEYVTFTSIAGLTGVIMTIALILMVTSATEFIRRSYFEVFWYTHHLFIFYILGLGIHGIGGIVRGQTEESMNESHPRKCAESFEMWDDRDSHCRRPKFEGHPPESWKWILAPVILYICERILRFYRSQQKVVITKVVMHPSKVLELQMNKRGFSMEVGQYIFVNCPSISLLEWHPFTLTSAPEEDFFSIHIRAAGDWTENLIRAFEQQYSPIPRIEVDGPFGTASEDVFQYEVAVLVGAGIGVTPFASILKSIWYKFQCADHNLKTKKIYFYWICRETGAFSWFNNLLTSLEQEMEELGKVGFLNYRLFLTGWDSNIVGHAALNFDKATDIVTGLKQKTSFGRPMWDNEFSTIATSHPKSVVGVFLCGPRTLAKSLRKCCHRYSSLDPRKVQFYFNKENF
Chain of Nox1 (P13498 2-195 partner): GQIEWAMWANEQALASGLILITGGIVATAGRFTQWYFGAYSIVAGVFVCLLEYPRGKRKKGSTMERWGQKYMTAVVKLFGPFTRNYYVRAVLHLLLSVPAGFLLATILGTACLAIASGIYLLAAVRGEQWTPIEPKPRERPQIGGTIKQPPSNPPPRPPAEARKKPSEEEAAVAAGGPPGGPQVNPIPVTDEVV
Experimental: as §1
CHO cells expressing Nox1 were cultured in DMEM 12 medium (DMEM/F12) supplemented with FBS (10%), penicillin (100 U/ml) and streptomycin (100 μg/ml) at 37° C. in air with 5% CO2.
as §2
Adherent cells (CHO, HEK) were collected by trypsinization, centrifuged, washed with HBSS, counted, and resuspended in HBSS. Cells were seeded in 96-well black flat bottom plates at a density of 50,000-100,000 cells/well. All compounds were dissolved in DMSO and concentrations ranging from 0.003 to 200 μM were tested in Nox cellular assays with a final concentration of DMSO of 1%. Cells were incubated at 37° C. with the compounds for 30 minutes before measurement. Cells expressing Nox1 and Nox2 were activated with the PKC activator PMA (0.1 μM). Nox5 was activated with the Ca2+ ionophore ionomycin (1 μM) and further enforced with PMA. The CJ HEK 293 cells overexpressed Nox4 constitutively. In the HTS screen HEK 293 TRex was used and tetracycline ([…]) was added 18 h before measurement to induce Nox4 expression. Production of hydrogen peroxide by Nox in intact cells was measured using Amplex Red fluorescence as described by Jaquet V, et al., Br J Pharmacol 2011; 164:507-520. Assay reagents including HRP ([…]) and Amplex Red (50 μM) were added to initiate production of hydrogen peroxide. Fluorescence was read in a fluorescence plate reader at 37° C. every minute between 30-60 minutes.

[4] = DPPH redox assay; set-up: key: The sign “—” stands for “inactive”; conditions: redox activity control
Experimental: DPPH, a well-known sensitive chemical of monitoring reactions involving radicals described by Xiong Q, et al., Biol Pharm Bull 1996; 19:1580-1585, was used as control to exclude any redox active compound. DPPH was incubated with decreasing concentrations (200-0.003 μM) of compounds of the invention or prior art compound GKT136901 (as a positive control). The plate was kept in the dark for 60 min, after which the absorbance of the solution was measured at 518 nm.

[5] = molecular target: Nox4 expressing HEK293 cells (Homo sapiens (Human), UniProt Q9NPH5); assay: Oxygen consumption in Nox4 expressing HEK293 cells; type: cell-based
Chain of Nox4 expressing HEK293 cells (Q9NPH5 whole entry): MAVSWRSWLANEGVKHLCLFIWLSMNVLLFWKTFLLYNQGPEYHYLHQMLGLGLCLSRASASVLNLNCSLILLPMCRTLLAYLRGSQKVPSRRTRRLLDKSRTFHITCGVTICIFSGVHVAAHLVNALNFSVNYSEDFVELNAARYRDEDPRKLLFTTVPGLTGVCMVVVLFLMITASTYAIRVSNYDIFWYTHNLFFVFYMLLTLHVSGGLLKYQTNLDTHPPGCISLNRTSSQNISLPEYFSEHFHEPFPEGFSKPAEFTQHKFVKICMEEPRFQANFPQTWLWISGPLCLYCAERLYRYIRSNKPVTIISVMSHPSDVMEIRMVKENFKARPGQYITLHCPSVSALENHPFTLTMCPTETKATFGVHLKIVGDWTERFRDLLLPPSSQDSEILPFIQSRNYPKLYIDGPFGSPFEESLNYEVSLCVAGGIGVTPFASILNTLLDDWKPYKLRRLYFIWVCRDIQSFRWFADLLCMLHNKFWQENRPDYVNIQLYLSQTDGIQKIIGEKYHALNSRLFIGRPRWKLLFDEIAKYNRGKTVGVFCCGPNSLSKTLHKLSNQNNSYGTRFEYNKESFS
Chain of Nox4 expressing HEK293 cells (P13498 2-195 partner): as the sequence (P13498 2-195 partner) above

[6] = molecular target: hNox4 (Homo sapiens (Human), UniProt Q9NPH5); assay: hNox4 membrane assay (Amplex Red, cell-free); type: biochemical
Chain of hNox4 (Q9NPH5 whole entry): as the sequence (Q9NPH5 whole entry) above
Chain of hNox4 (P13498 2-195 partner): as the sequence (P13498 2-195 partner) above
Experimental: as §2
Membranes from transfected cells overexpressing Nox1 (CHO), Nox2 (PLB), Nox3 (HEK), Nox4 (HEK) or Nox5 (HEK) were prepared as described in Pailcz et al., 2001, J. Biol. Chem, 76, 3090-3097. Cells were suspended and homogenized in sonication buffer containing PBS, sucrose (11%), NaCl (120 mM) and EGTA (1 mM) supplemented with protease inhibitors and further processed and then broken by sonication cooled with an ice bath. Then the sample was centrifuged at 200×g for 10 min. Supernatant was carefully added on top of a 17/40% discontinuous sucrose gradient and centrifuged at 150 000×g for 60 min. Membranes containing Nox isoforms were collected at the 17/40% sucrose interface as described by Jaquet V, et al., Br J Pharmacol 2011; 164:507-520. For the Nox isoforms Nox1, Nox2, Nox3 a subunit-specific cell-free, membrane-based system has been developed and recombinant proteins of the subunits were added to receive activation of the Nox-iso forms in the cell-free assay. The Amplex Red assay was performed in black 96-well flat bottom plates. Assay reagents including HRP ([…]), FAD (6 μM), phosphatidic acid (15 μM) and Amplex Red (50 μM) were added followed by NADPH (30 μM) to initiate production of hydrogen peroxide. The production of hydrogen peroxide was followed by use of a fluorescence plate reader, read at 37° C. every minute between 30-60 minutes.

Chain of Nox2 (P04839 2-570): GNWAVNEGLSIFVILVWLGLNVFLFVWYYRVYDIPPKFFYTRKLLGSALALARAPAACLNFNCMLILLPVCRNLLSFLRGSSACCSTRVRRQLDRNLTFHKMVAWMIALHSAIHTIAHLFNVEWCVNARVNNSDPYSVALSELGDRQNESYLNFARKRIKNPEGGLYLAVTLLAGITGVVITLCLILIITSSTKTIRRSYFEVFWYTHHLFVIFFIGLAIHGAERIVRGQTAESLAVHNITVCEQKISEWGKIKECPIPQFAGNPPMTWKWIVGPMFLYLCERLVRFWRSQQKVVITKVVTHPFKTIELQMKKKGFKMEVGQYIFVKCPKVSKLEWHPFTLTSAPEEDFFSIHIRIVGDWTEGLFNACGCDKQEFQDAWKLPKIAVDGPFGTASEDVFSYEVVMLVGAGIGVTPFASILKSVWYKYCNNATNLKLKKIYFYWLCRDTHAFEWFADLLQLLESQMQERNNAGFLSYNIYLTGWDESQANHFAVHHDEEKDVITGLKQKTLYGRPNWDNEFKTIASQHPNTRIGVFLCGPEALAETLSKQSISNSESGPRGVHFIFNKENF
Chain of Nox2 (P13498 2-195 partner): as the sequence (P13498 2-195 partner) above

SMILES | IC50 Nox2 [1] | IC50 XO [2] | IC50 Nox1 [3] | IC50 DPPH [4] | IC50 [1] [nM] | Inhibition of oxygen consumption in Nox4 expressing HEK293 cells [5] | Ki [6] [nM]
Cc1ccccc1C(F)CNS(=O)(=O)c1c(Cl)cc(Br)cc1Cl (racemic) [Example 35, 4-bromo-2,6-dichloro-N-[2-fluoro-2-(2-methylphenyl)ethyl]benzene-1-sulfonamide] | — | — | — | — |  |  | 
O=S(=O)(NCCc1ccccc1O)c1c(Cl)cc(Br)cc1Cl [Example 38, 4-bromo-2,6-dichloro-N-[2-(2-hydroxyphenyl)ethyl]benzenesulfonamide] |  | — | — | — | 1500 |  | 
Cc1ccccc1CCNS(=O)(=O)c1c(C)cccc1Cl [Example 11, 2-chloro-6-methyl-N-[2-(2-methylphenyl)ethyl]benzene-1-sulfonamide] | — | — | — | — |  | yes | 4400
O=S(=O)(NCCc1ccccc1Cl)c1c(Cl)cc(C2CC2)cc1Cl [Example 26, 2,6-dichloro-N-[2-(2-chlorophenyl)ethyl]-4-cyclopropylbenzene-1-sulfonamide] | — | — | — | — |  | yes | 2200
Cc1cc(Cl)c(S(=O)(=O)NCCc2ccccc2O)c(C)c1O [Example 44, 6-chloro-3-hydroxy-N-[2-(2-hydroxyphenyl)ethyl]-2,4-dimethyl-benzenesulfonamide] |  | — | — | — | 900 |  | 
Cc1cc(C)c(S(=O)(=O)NCCc2ccccc2O)c(C)c1 [Example 37, N-[2-(2-hydroxyphenyl)ethyl]-2,4,6-trimethylbenzene-1-sulfonamide] |  | — | — | — | 900 |  | 
Cc1ccccc1CCNS(=O)(=O)c1c(Cl)cc(Br)cc1Cl [Example 17, 4-bromo-2,6-dichloro-N-[2-(2-methylphenyl)ethyl]benzene-1-sulfonamide] | — | — | — | — |  | yes | 560
Cc1cc(O)cc(C)c1S(=O)(=O)NCCc1ccccc1O [Example 48, 4-hydroxy-N-[2-(2-hydroxyphenyl)ethyl]-2,6-dimethyl-benzenesulfonamide] |  | — | — | — | 870 |  | 
COc1cc(C)c(S(=O)(=O)NCCc2ccccc2Cl)c(C)c1 [Example 46, N-[2-(2-chlorophenyl)ethyl]-4-methoxy-2,6-dimethyl-benzenesulfonamide] | — | — | — | — |  |  | 
COc1cc(C)c(S(=O)(=O)NCCc2ccccc2O)c(C)c1 [Example 47, N-[2-(2-hydroxyphenyl)ethyl]-4-methoxy-2,6-dimethyl-benzenesulfonamide] |  | — | — | — | 1000 |  | 
